# Experiments:
# [1] = system: A549 lung carcinoma cells; assay: Anticancer cell cytotoxicity assay; format: cell-based; conditions: Homo sapiens, A549, 24 h, read-out: A549 IC50 (μM)
# [2] = system: primary peripheral blood mononuclear cells (PBMCs); assay: Cytotoxicity assay; format: cell-based; conditions: Homo sapiens, PBMC, 24 h, read-out: PBMCs IC50 (μM)
# [3] = system: LS174T colorectal adenocarcinoma cells; assay: Anticancer cell cytotoxicity assay; format: cell-based; conditions: Homo sapiens, 24 h, read-out: LS174T IC50 (μM)
# [4] = target: T1, human neutrophil elastase (HNE) (Homo sapiens, UniProt P08246); assay: HNE inhibitory assay; format: biochemical
# T1 sequence (P08246 30-247 limits assumed): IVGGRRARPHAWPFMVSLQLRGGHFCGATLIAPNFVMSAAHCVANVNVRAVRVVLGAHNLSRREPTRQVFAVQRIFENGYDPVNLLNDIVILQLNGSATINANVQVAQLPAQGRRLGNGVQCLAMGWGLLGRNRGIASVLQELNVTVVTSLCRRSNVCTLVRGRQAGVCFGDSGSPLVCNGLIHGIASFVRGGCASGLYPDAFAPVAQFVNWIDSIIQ
# [5] = target: T2, MKK7 (Homo sapiens, UniProt O14733); assay: KINOMEscan kinase binding assay; conditions: for Kd (μM) vs MKK7: KINOMEscan, duplicate, maximum concentration 30 μM
# T2 sequence (O14733 1-419): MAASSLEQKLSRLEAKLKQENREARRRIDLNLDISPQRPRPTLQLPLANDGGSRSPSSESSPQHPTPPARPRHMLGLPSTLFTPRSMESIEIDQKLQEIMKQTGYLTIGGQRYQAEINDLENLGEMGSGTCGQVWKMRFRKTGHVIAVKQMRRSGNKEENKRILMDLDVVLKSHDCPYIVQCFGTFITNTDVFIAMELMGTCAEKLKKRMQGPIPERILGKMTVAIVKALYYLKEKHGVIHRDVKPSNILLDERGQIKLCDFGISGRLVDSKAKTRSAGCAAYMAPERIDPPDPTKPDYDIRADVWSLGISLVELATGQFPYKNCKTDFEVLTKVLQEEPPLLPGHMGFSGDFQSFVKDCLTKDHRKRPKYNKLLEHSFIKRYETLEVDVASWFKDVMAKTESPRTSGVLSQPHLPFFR
# [6] = system: MCF7 breast adenocarcinoma cells; assay: Anticancer cell cytotoxicity assay; format: cell-based; conditions: Homo sapiens, MCF7, 24 h, read-out: MCF7 IC50 (μM)
# [7] = system: SW-982 synovial sarcoma cells; assay: Anticancer cell cytotoxicity assay; format: cell-based; conditions: Homo sapiens, SW982, 24 h, read-out: SW-982 IC50 (μM)
# [8] = system: nine tumor cell lines and primary PBMCs; assay: Cytotoxicity across the panel of nine tumor cell lines and PBMCs; format: cell-based, human; conditions: 24 h; for cytotoxicity toward tumor cell lines and PBMCs (in words): up to 50 μM; for IC50: Homo sapiens, PBMC, read-out: cytotoxic activity IC50 for most of the cell lines
# [9] = target: T3, MKK4 (Homo sapiens, UniProt P45985); assay: KINOMEscan kinase binding assay; conditions: for Kd for MKK4: KINOMEscan, data not shown
# T3 sequence (P45985 1-399): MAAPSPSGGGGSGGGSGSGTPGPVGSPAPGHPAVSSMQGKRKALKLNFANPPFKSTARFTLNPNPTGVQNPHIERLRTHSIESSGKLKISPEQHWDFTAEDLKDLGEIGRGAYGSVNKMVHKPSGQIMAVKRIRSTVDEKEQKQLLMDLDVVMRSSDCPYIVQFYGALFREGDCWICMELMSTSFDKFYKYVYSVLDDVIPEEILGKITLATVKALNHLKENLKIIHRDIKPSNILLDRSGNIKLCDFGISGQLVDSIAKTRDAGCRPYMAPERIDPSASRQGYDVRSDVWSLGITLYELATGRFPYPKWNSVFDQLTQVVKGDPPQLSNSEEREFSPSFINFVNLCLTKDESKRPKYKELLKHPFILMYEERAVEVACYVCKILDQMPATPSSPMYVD
# [10] = target: T4, Cdc25A (Homo sapiens, UniProt P30304); assay: CycLex Cdc25A fluorometric phosphatase inhibition assay; format: biochemical
# T4 sequence (P30304 1-524): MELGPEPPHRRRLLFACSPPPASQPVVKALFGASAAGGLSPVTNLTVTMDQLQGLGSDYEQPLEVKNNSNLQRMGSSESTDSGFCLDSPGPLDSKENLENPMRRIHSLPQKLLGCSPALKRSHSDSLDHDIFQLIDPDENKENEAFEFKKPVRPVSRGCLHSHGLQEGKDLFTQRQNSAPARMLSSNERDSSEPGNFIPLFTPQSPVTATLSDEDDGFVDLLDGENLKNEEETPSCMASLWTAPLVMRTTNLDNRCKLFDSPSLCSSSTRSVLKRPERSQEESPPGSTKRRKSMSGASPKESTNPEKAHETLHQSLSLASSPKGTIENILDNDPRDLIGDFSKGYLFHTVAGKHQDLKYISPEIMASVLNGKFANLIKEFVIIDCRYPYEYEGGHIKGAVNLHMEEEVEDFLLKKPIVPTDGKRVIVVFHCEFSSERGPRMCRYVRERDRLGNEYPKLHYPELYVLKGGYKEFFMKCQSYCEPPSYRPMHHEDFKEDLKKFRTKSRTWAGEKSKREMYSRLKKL
# [11] = target: T5, Cdc25B (Homo sapiens, UniProt P30305); assay: CycLex Cdc25B fluorometric phosphatase inhibition assay; format: biochemical
# T5 sequence (P30305 1-580): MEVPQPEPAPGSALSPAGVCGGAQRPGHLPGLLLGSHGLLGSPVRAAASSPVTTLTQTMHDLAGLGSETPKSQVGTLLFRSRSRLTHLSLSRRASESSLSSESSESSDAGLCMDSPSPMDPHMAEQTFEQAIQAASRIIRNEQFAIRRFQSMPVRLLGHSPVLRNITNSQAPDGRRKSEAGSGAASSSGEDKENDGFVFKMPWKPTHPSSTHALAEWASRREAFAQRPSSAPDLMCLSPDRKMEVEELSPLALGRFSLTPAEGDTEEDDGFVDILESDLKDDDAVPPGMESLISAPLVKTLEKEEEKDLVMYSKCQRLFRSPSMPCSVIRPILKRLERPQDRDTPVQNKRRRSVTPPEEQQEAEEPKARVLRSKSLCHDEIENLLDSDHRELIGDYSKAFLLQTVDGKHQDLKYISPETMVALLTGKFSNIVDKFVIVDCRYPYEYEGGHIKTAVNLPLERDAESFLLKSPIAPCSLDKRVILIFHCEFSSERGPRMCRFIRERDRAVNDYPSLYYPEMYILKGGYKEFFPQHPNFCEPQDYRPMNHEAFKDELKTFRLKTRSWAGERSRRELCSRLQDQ
smiles,measurement,setting,value
"COc1ccc(OC)c2c1C(=O)C=C(SCCC(=O)O)C2=O [Compound 14, GN25]",IC50,[1],> 50 µM
same,IC50,[2],> 50 µM
same,IC50,[3],> 50 µM
same,IC50,[4],> 50 µM
same,Kd,[5],> 30 µM
same,Kd (μM) vs MKK7,[5],inactive
same,IC50,[6],> 50 µM
same,IC50,[7],> 50 µM
same,cytotoxicity toward tumor cell lines and PBMCs (in words),[8],weakly toxic or nontoxic
COC1=C(OC)C(=O)c2ccccc2C1=O [Compound 15],IC50,[4],> 50 µM
same,Kd (μM) vs MKK7,[5],almost complete loss of binding affinity
"O=C(O)CCSC1=CC(=O)c2ccccc2C1=O [Compound 7, 3-[(1,4-dioxonaphthalen-2-yl)sulfanyl]propanoic acid]",IC50,[4],> 50 µM
same,fold more active than 6 (MKK7),[5]; compared with compound 6,6 fold
same,Kd for MKK4,[9],No MKK4 binding affinity
"O=C(O)c1ccc(NC2=C(Cl)C(=O)c3ccccc3C2=O)cc1 [Compound 22f, 4-(3-Chloro-1,4-dioxo-1,4-dihydro-naphthalen-2-ylamino)-benzoic acid]",IC50,[4],> 50 µM
same,IC50,[8],< 10 µM
"O=C1C(SCCO)=C(SCCO)C(=O)c2ccccc21 [Compound 4, 2,3-bis-[(2-hydroxyethyl)thio]-1,4-naphthoquinone, reference compound]",IC50,[4],> 50 µM
same,Kd (μM) vs MKK7,[5],in the micromolar range
same,Kd for MKK4,[9],No MKK4 binding affinity
same,IC50,[8],< 10 µM
O=C(O)CSC1=CC(=O)c2ccccc2C1=O [Compound 6],IC50,[4],> 50 µM
same,Kd,[9],19.5 ± 0.7 µM
same,cytotoxicity toward tumor cell lines and PBMCs (in words),[8],weakly active or inactive
"CC1=CC(=O)c2ccccc2C1=O [Compound 18, menadione, reference compound]",IC50,[4],> 50 µM
same,Kd,[5],> 30 µM
same,Kd (μM) vs MKK7,[5],did not bind
same,IC50,[8],< 10 µM
COC1=C(C)C(=O)c2ccccc2C1=O [Compound 17],IC50,[1],> 50 µM
same,IC50,[2],> 50 µM
same,IC50,[3],> 50 µM
same,IC50,[4],> 50 µM
same,IC50,[7],> 50 µM
CCSC1=C(C)C(=O)c2ccccc2C1=O [Compound 10],IC50,[4],> 50 µM
same,IC50,[8],< 10 µM
COC1=CC(=O)c2ccccc2C1=O [Compound 16],IC50,[4],> 50 µM
"CC(C)(C)[C@H]1CC[C@H](CC2=C(O)C(=O)c3ccccc3C2=O)CC1 [Compound 21, buparvaquone, reference compound]",IC50,[10],> 50 µM
same,IC50,[4],> 50 µM
same,Kd,[5],> 30 µM
same,Kd (μM) vs MKK7,[5],did not bind
"CC1=C(SCCO)C(=O)c2ccccc2C1=O [Compound 5, reference compound]",IC50,[4],> 50 µM
same,Kd,[5],> 30 µM
O=C1C(O)=C(CN(CCCl)CCCl)C(=O)c2ccccc21 [Compound 19],IC50,[4],> 50 µM
"CC1=CC(=O)c2c(O)cccc2C1=O [Compound 2, Plumbagin, reference compound]",IC50,[4],> 50 µM
same,IC50,[8],< 10 µM
COCCSC1=C(C)C(=O)c2ccccc2C1=O [Compound 11],IC50,[4],> 50 µM
same,IC50,[8],< 10 µM
"O=C1C(Cl)=C(NCCCN2CCOCC2)C(=O)c2ccccc21 [Compound 24, 2-Chloro-3-(3-morpholin-4-yl-propylamino)-1,4-naphthoquinone]",IC50,[10],> 50 µM
same,Cdc25A IC50 (μM),"[10]; recombinant Cdc25A, OMFP substrate, 25 °C",inactive
same,IC50,[11],> 50 µM
same,Cdc25B IC50 (μM),"[11]; recombinant Cdc25B, OMFP substrate, 25 °C",inactive
same,IC50,[4],> 50 µM
"O=C(O)c1cccc(NC2=C(Cl)C(=O)c3ccccc3C2=O)c1 [Compound 22e, 3-(3-Chloro-1,4-dioxo-1,4-dihydro-naphthalen-2-ylamino)-benzoic acid]",IC50,[4],> 50 µM
same,Kd for MKK4,[9],No MKK4 binding affinity
same,IC50,[8],< 10 µM
"O=C1C(Cl)=C(NCCO)C(=O)c2ccccc21 [Compound 23a, 2-Chloro-3-(2-hydroxy-ethylamino)-1,4-naphthoquinone]",IC50,[11],> 50 µM
same,IC50,[4],> 50 µM
"O=C(O)CCCNC1=C(Cl)C(=O)c2ccccc2C1=O [Compound 22c, 4-(3-Chloro-1,4-dioxo-1,4-dihydro-naphthalen-2-ylamino)-butyric acid]",IC50,[4],> 50 µM
"COC(=O)c1ccc(NC2=C(OC)C(=O)c3ccccc3C2=O)cc1 [Compound 25b, 4-(3-Methoxy-1,4-dioxo-1,4-dihydro-naphthalen-2-ylamino)-benzoic acid methyl ester]",IC50,[10],> 50 µM
same,IC50,[11],> 50 µM
same,IC50,[4],> 50 µM
CC(SC1=CC(=O)c2ccccc2C1=O)C(=O)O (stereo not shown) [Compound 8],Kd for MKK4,[9],No MKK4 binding affinity
"COC(=O)c1ccc(NC2=C(Cl)C(=O)c3ccccc3C2=O)cc1 [Compound 22g, 4-(3-Chloro-1,4-dioxo-1,4-dihydro-naphthalen-2-ylamino)-benzoic acid methyl ester]",IC50,[4],> 50 µM
"O=C(O)CNC1=C(Cl)C(=O)c2ccccc2C1=O [Compound 22a, (3-Chloro-1,4-dioxo-1,4-dihydro-naphthalen-2-ylamino)-acetic acid]",IC50,[11],> 50 µM
same,IC50,[4],> 50 µM
"CC1=C(SCCC(=O)O)C(=O)c2ccccc2C1=O [Compound 9, vitamin ks-II, reference compound]",IC50,[4],> 50 µM
CC1=C(SC(C)C)C(=O)c2ccccc2C1=O [Compound 12],IC50,[4],> 50 µM
same,IC50,[8],< 10 µM
"COC(=O)c1ccc(NC2=C(N3CCCCC3)C(=O)c3ccccc3C2=O)cc1 [Compound 25a, 4-(1,4-Dioxo-3-piperidin-1-yl-1,4-dihydro-naphthalen-2-ylamino)-benzoic acid methyl ester]",IC50,[4],> 50 µM
same,Kd,[5],> 30 µM
"O=C1C(Cl)=C(NCCCO)C(=O)c2ccccc21 [Compound 23b, 2-Chloro-3-(3-hydroxy-propylamino)-1,4-naphthoquinone]",IC50,[11],> 50 µM
same,IC50,[4],> 50 µM
"CC(C)=CC[C@@H](O)C1=CC(=O)c2c(O)ccc(O)c2C1=O [Compound 1, Shikonin]",IC50,[4],> 50 µM
same,Kd,[5],> 30 µM
same,Kd (μM) vs MKK7,[5],did not bind
CSC1=C(SC)C(=O)c2ccccc2C1=O [Compound 13],IC50,[4],> 50 µM
same,IC50,[8],< 10 µM
